Source: ChEMBL document CHEMBL3297657, “Synthesis and antitumor activities of novel α-aminophosphonate derivatives containing an alizarin moiety” (Eur J Med Chem, 2014)
Activity calls are given as the source filed them. No cut-off for these calls is given here.

Columns and labels:
[1] = system: MGC-803; test: Cytotoxicity against human MGC803 cells after 48 hrs by MTT assay; type: functional, cell-based; settings: MGC-803, 48 h
[2] = system: NCI-H460; test: Cytotoxicity against human NCI-H460 cells after 48 hrs by MTT assay; type: functional, cell-based; settings: NCI-H460, 48 h
[3] = system: HeLa; test: cells; settings: Homo sapiens, 48 h
Description: Cytotoxicity against human HeLa cells after 48 hrs by MTT assay

[4] = system: A549; test: cells; settings: Homo sapiens, A549, 48 h
Description: Cytotoxicity against human A549 cells after 48 hrs by MTT assay

[5] = system: KB; test: Cytotoxicity against human KB cells after 48 hrs by MTT assay; type: functional, cell-based
[6] = system: HepG2; test: cells; settings: Homo sapiens, HepG2, 48 h
Description: Cytotoxicity against human HepG2 cells after 48 hrs by MTT assay

[7] = system: HCT-116; test: cells; settings: Homo sapiens, HCT-116, 48 h
Description: Cytotoxicity against human HCT116 cells after 48 hrs by MTT assay

[8] = system: CNE; test: Cytotoxicity against human CNE cells after 48 hrs by MTT assay; type: functional, cell-based
[9] = system: HUVEC; test: Cytotoxicity against HUVEC after 48 hrs by MTT assay; type: cell-based; settings: Homo sapiens
[10] = system: NCI-H460; test: Induction of apoptosis in human NCI-H460 cells assessed as early apoptotic cells at 5 to 20 uM after 24 hrs by Annexin V/propidium iodide staining-based flow cytometry relative to control; type: functional, cell-based

| SMILES | IC50 [1] | IC50 [2] | IC50 [3] | IC50 [4] | IC50 [5] | IC50 [6] | IC50 [7] | IC50 [8] | IC50 [9] | Activity [10] |
| --- | --- | --- | --- | --- | --- | --- | --- | --- | --- | --- |
| CCOP(=O)(OCC)C(NC(=O)C(C)Oc1ccc2c(c1O)C(=O)c1ccccc1C2=O)c1ccc(OC)cc1 (stereo not given) | 22.5 µM | 14.3 µM | 14.7 µM | 33.7 µM | 1 µM | > 50 µM | 13.7 µM | > 50 µM | > 50 µM | – |
| CCOP(=O)(OCC)C(NC(=O)COc1ccc2c(c1O)C(=O)c1ccccc1C2=O)c1ccc(OC)cc1 (stereo not given) | 36.1 µM | 20 µM | > 50 µM | 42.2 µM | 7.32 µM | > 50 µM | 44.9 µM | – | > 50 µM | – |
| CCOP(=O)(OCC)C(NC(=O)COc1ccc2c(c1O)C(=O)c1ccccc1C2=O)c1ccccc1Br (stereo not given) | 18.7 µM | 12 µM | > 50 µM | 35.8 µM | 6.64 µM | > 50 µM | 17.2 µM | – | > 50 µM | – |
| CCOP(=O)(OCC)C(NC(=O)C(C)Oc1ccc2c(c1O)C(=O)c1ccccc1C2=O)c1cccc(Br)c1 (stereo not given) | 27.5 µM | 10.7 µM | 11 µM | 32.8 µM | 2.29 µM | 23.6 µM | 15.7 µM | > 50 µM | 23.6 µM | – |
| O=C1c2ccccc2C(=O)c2c1ccc(O)c2O [ATHRAQUINONES A] | 39.4 µM | > 50 µM | > 100 µM | > 50 µM | 15.7 µM | > 50 µM | > 50 µM | > 100 µM | > 50 µM | – |
| CCOP(=O)(OCC)C(NC(=O)C(C)Oc1ccc2c(c1O)C(=O)c1ccccc1C2=O)c1ccc(Cl)cc1 (stereo not given) | 25.1 µM | 5.11 µM | 12.7 µM | 10.7 µM | 0.2 µM | 31.8 µM | 15.6 µM | 48.7 µM | 31.8 µM | – |
| CCOP(=O)(OCC)C(NC(=O)COc1ccc2c(c1O)C(=O)c1ccccc1C2=O)c1ccccc1OC (stereo not given) | 29.2 µM | 20.8 µM | > 50 µM | 39 µM | 1.24 µM | > 50 µM | 30.2 µM | – | > 50 µM | – |
| CCOP(=O)(OCC)C(NC(=O)C(C)Oc1ccc2c(c1O)C(=O)c1ccccc1C2=O)c1ccc(C)cc1 (stereo not given) | 27.9 µM | 28.9 µM | > 50 µM | 38 µM | 0.99 µM | > 50 µM | 37 µM | > 50 µM | > 50 µM | – |
| CCOP(=O)(OCC)C(NC(=O)COc1ccc2c(c1O)C(=O)c1ccccc1C2=O)c1ccccc1F (stereo not given) | 27.1 µM | 12.9 µM | > 50 µM | 37.8 µM | 2.6 µM | > 50 µM | 14.7 µM | – | > 50 µM | – |
| CCOP(=O)(OCC)C(NC(=O)COc1ccc2c(c1O)C(=O)c1ccccc1C2=O)c1cccc(C)c1 (stereo not given) | 37.9 µM | 33.9 µM | 10.6 µM | 47 µM | 12 µM | 28.5 µM | 16 µM | – | > 50 µM | – |
| O=c1[nH]cc(F)c(=O)[nH]1 [FLUOROURACIL] | 46.9 µM | 45.1 µM | 23.3 µM | – | 1.23 µM | 38.3 µM | 10.1 µM | 45.1 µM | 24.1 µM | – |
| CCOP(=O)(OCC)C(NC(=O)C(C)Oc1ccc2c(c1O)C(=O)c1ccccc1C2=O)c1ccc(Br)cc1 (stereo not given) | 18.5 µM | 7.83 µM | 10.9 µM | 30.3 µM | 0.26 µM | 22.2 µM | 12.4 µM | 22.2 µM | 22.2 µM | – |
| CCOP(=O)(OCC)C(NC(=O)COc1ccc2c(c1O)C(=O)c1ccccc1C2=O)c1cccc(OC)c1 (stereo not given) | 38 µM | 27.9 µM | > 50 µM | 44.1 µM | 15.5 µM | > 50 µM | 49.8 µM | – | > 50 µM | – |
| CCOP(=O)(OCC)C(NC(=O)COc1ccc2c(c1O)C(=O)c1ccccc1C2=O)c1ccccc1 (stereo not given) | 13 µM | 11.9 µM | 18.5 µM | 12.1 µM | 6.7 µM | 41.4 µM | 17.4 µM | – | > 50 µM | – |
| CCOP(=O)(OCC)C(NC(=O)C(C)Oc1ccc2c(c1O)C(=O)c1ccccc1C2=O)c1cccc(Cl)c1 (stereo not given) | 29 µM | 9.1 µM | 12.9 µM | 18.7 µM | 0.22 µM | 70.8 µM | 36.3 µM | > 50 µM | 70.8 µM | – |
| CCOP(=O)(OCC)C(NC(=O)C(C)Oc1ccc2c(c1O)C(=O)c1ccccc1C2=O)c1ccccc1Br (stereo not given) | 15.1 µM | 4.11 µM | 41.6 µM | 11.4 µM | 0.13 µM | 24.1 µM | 7.31 µM | 47.3 µM | 24.1 µM | Active |
| CCOP(=O)(OCC)C(NC(=O)C(C)Oc1ccc2c(c1O)C(=O)c1ccccc1C2=O)c1ccccc1 (stereo not given) | 6.66 µM | 8.11 µM | > 50 µM | 34.6 µM | 0.65 µM | > 50 µM | 8.07 µM | > 50 µM | > 50 µM | Active |
| CCOP(=O)(OCC)C(NC(=O)C(C)Oc1ccc2c(c1O)C(=O)c1ccccc1C2=O)c1cccc(C)c1 (stereo not given) | 8.02 µM | 9.31 µM | 17.4 µM | 25.6 µM | 9.68 µM | > 50 µM | 36.2 µM | 30.5 µM | > 50 µM | Active |
| CCOP(=O)(OCC)C(NC(=O)C(C)Oc1ccc2c(c1O)C(=O)c1ccccc1C2=O)c1cccc(OC)c1 (stereo not given) | 27.6 µM | 14.9 µM | > 50 µM | 36 µM | 5.78 µM | > 50 µM | 17 µM | > 50 µM | > 50 µM | – |
| CCOP(=O)(OCC)C(NC(=O)C(C)Oc1ccc2c(c1O)C(=O)c1ccccc1C2=O)c1ccc(F)cc1 (stereo not given) | 22.9 µM | 8.92 µM | 34.1 µM | 19.4 µM | 0.87 µM | 25.3 µM | 17.9 µM | > 50 µM | 25.3 µM | – |
| CCOP(=O)(OCC)C(NC(=O)COc1ccc2c(c1O)C(=O)c1ccccc1C2=O)c1ccc(C)cc1 (stereo not given) | 12.6 µM | 12.2 µM | > 50 µM | 33.8 µM | 9.37 µM | > 50 µM | 13.7 µM | – | > 50 µM | – |
| CCOP(=O)(OCC)C(NC(=O)COc1ccc2c(c1O)C(=O)c1ccccc1C2=O)c1ccc(Br)cc1 (stereo not given) | 35.2 µM | 46.2 µM | > 50 µM | 45.1 µM | 3.26 µM | > 50 µM | 45.8 µM | – | > 50 µM | – |
| CCOP(=O)(OCC)C(NC(=O)COc1ccc2c(c1O)C(=O)c1ccccc1C2=O)c1ccc(F)cc1 (stereo not given) | 30.9 µM | 47.9 µM | > 50 µM | 49 µM | 6.45 µM | > 50 µM | 36.3 µM | – | > 50 µM | – |
| CCOP(=O)(OCC)C(NC(=O)COc1ccc2c(c1O)C(=O)c1ccccc1C2=O)c1ccccc1Cl (stereo not given) | 39.2 µM | 21.2 µM | > 50 µM | 38 µM | 1.55 µM | > 50 µM | 16.3 µM | – | > 50 µM | – |
| CCOP(=O)(OCC)C(NC(=O)C(C)Oc1ccc2c(c1O)C(=O)c1ccccc1C2=O)c1cccc(F)c1 (stereo not given) | 28.9 µM | 25.9 µM | > 50 µM | 35.1 µM | 9.12 µM | > 50 µM | 47.1 µM | > 50 µM | > 50 µM | – |
| CCOP(=O)(OCC)C(NC(=O)C(C)Oc1ccc2c(c1O)C(=O)c1ccccc1C2=O)c1ccccc1Cl (stereo not given) | 11 µM | 3.8 µM | 20.9 µM | 10.1 µM | 0.14 µM | 19.9 µM | 14.8 µM | 43.1 µM | 19.9 µM | Active |
| CCOP(=O)(OCC)C(NC(=O)C(C)Oc1ccc2c(c1O)C(=O)c1ccccc1C2=O)c1ccc2ccccc2c1 (stereo not given) | 5.6 µM | 14.1 µM | 23.6 µM | 25.2 µM | 1.21 µM | 38.9 µM | 23 µM | 49.4 µM | 38.9 µM | – |
